Measurements: the supplement of paper PMC4862054

Assays:
Settings in all cases: incubation time: 72 h
MFM-223 [1] = assay: normalised response (% of control), CellTox Green; higher = less cell death (100 = DMSO, 0 = benzethonium chloride kill control)
Procedure, shortened: (§1)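 For each plate, 0.1 % DMSO was set to 100 and a positive kill control to 0. Breast cancer cell lines (20 µl suspension) were seeded into 384-well plates already holding compound at 5 concentrations in 10-fold steps over a 10,000-fold range chosen per compound, and incubated for 72 h. CellTox Green fluorescence at 485/520 nm was read before CellTiter-Glo luminescence, which followed 10 min at room temperature. Each value is the normalised signal at one concentration.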

BT-474 [2] = assay: as above
Procedure, shortened: as §1

MDA-MB-453 [3] = assay: as above
Procedure, shortened: as §1

MDA-MB-231 [4] = assay: as above
Procedure, shortened: as §1

CAL-51 [5] = assay: as above
Procedure, shortened: as §1

MDA-MB-468 [6] = assay: as above
Procedure, shortened: as §1

Hs578T [7] = assay: as above
Procedure, shortened: as §1

MCF-10A [8] = assay: as above
Procedure, shortened: as §1

MDA-MB-436 [9] = assay: as above
Procedure, shortened: as §1

BT-549 [10] = assay: as above
Procedure, shortened: as §1

HCC1599 [11] = assay: as above
Procedure, shortened: as §1

CAL-148 [12] = assay: as above
Procedure, shortened: as §1

CAL-120 [13] = assay: as above
Procedure, shortened: as §1

HCC1143 [14] = assay: as above
Procedure, shortened: as §1

HCC1937 [15] = assay: as above
Procedure, shortened: as §1

DU-4475 [16] = assay: as above
Procedure, shortened: as §1

HDQ-P1 [17] = assay: as above
Procedure, shortened: as §1

CAL-85-1 [18] = assay: as above
Procedure, shortened: as §1

MFM-223 [19] = assay: normalised response (% of control), CellTiter-Glo; higher = more viable cells (100 = DMSO, 0 = benzethonium chloride kill control)
Procedure, shortened: as §1

BT-474 [20] = assay: as above
Procedure, shortened: as §1

MDA-MB-453 [21] = assay: as above
Procedure, shortened: as §1

MDA-MB-231 [22] = assay: as above
Procedure, shortened: as §1

CAL-51 [23] = assay: as above
Procedure, shortened: as §1

MDA-MB-468 [24] = assay: as above
Procedure, shortened: as §1

Hs578T [25] = assay: as above
Procedure, shortened: as §1

MCF-10A [26] = assay: as above
Procedure, shortened: as §1

SK-BR-3 = assay: as above
Procedure, shortened: as §1

MDA-MB-436 [27] = assay: as above
Procedure, shortened: as §1

BT-549 [28] = assay: as above
Procedure, shortened: as §1

HCC1599 [29] = assay: as above
Procedure, shortened: as §1

CAL-148 [30] = assay: as above
Procedure, shortened: as §1

CAL-120 [31] = assay: as above
Procedure, shortened: as §1

HCC1143 [32] = assay: as above
Procedure, shortened: as §1

HCC1937 [33] = assay: as above
Procedure, shortened: as §1

DU-4475 [34] = assay: as above
Procedure, shortened: as §1

HDQ-P1 [35] = assay: as above
Procedure, shortened: as §1

CAL-85-1 [36] = assay: as above
Procedure, shortened: as §1

SMILES | normalised response (MFM-223 [1]) [%] | normalised response (BT-474 [2]) [%] | normalised response (MDA-MB-453 [3]) [%] | normalised response (MDA-MB-231 [4]) [%] | normalised response (CAL-51 [5]) [%] | normalised response (MDA-MB-468 [6]) [%] | normalised response (Hs578T [7]) [%] | normalised response (MCF-10A [8]) [%] | normalised response (MDA-MB-436 [9]) [%] | normalised response (BT-549 [10]) [%] | normalised response (HCC1599 [11]) [%] | normalised response (CAL-148 [12]) [%] | normalised response (CAL-120 [13]) [%] | normalised response (HCC1143 [14]) [%] | normalised response (HCC1937 [15]) [%] | normalised response (DU-4475 [16]) [%] | normalised response (HDQ-P1 [17]) [%] | normalised response (CAL-85-1 [18]) [%] | normalised response (MFM-223 [19]) [%] | normalised response (BT-474 [20]) [%] | normalised response (MDA-MB-453 [21]) [%] | normalised response (MDA-MB-231 [22]) [%] | normalised response (CAL-51 [23]) [%] | normalised response (MDA-MB-468 [24]) [%] | normalised response (Hs578T [25]) [%] | normalised response (MCF-10A [26]) [%] | normalised response (SK-BR-3) [%] | normalised response (MDA-MB-436 [27]) [%] | normalised response (BT-549 [28]) [%] | normalised response (HCC1599 [29]) [%] | normalised response (CAL-148 [30]) [%] | normalised response (CAL-120 [31]) [%] | normalised response (HCC1143 [32]) [%] | normalised response (HCC1937 [33]) [%] | normalised response (DU-4475 [34]) [%] | normalised response (HDQ-P1 [35]) [%] | normalised response (CAL-85-1 [36]) [%]
CC(C)(C)Cn1c(N)nc2ccc(-c3[nH]c(C(C)(C)C)nc3-c3ccc(F)cc3)nc21 (100 nM) | 82.9 | 102 | 102 | 72.7 | 96.5 | 117 | 105 | 99.2 | 98 | 101 | 98.1 | 102 | 103 | 113 | 105 | 103 | 109 | 112 | 104 | 102 | 101 | 98.6 | 92.9 | 95.8 | 102 | 98.4 | 104 | 105 | 105 | 102 | 100 | 106 | 110 | 92.8 | 103 | 88.5 | 99.5
CC[C@H](CC#N)OC(=O)N[C@@H](C)c1cccc(NC(=O)Nc2ccc(-c3cnco3)c(OC)c2)c1 [AVN944] (100 nM) | 93.5 | 73.6 | 70.8 | 85.2 | 95 | 73.7 | 98.7 | 67.8 | 90.8 | 102 | 93.2 | 95.8 | 97.7 | 76.5 | 83 | 97.8 | 83.5 | 95.9 | 98.2 | 86.2 | 98.2 | 91.3 | 83.9 | 59.9 | 111 | 91.9 | 96 | 80.1 | 67.8 | 82.8 | 94.8 | 93.8 | 92.2 | 90.2 | 97.1 | 85.8 | 81.9
CC(C)C[C@H](NC(=O)[C@H](CCc1ccccc1)NC(=O)CN1CCOCC1)C(=O)N[C@@H](Cc1ccccc1)C(=O)N[C@@H](CC(C)C)C(=O)[C@@]1(C)CO1 [Carfilzomib] (10 nM) | 66.1 | 87.4 | 84.6 | 51.9 | 35.9 | -51.7 | 69.9 | 100 | 48.3 | 81.9 | 111 | 78.6 | 91.2 | 90.5 | 48.8 | 100 | 96.5 | 43.5 | 8.07 | 70.3 | 40.7 | 78.8 | 60.5 | 0.56 | 63.5 | 119 | 19.1 | 23.4 | 6.23 | 104 | 104 | 91.6 | 44.4 | 77 | 102 | 83.5 | 37.6
CCN(CC)CCOc1ccc(C(=C(Cl)c2ccccc2)c2ccccc2)cc1 [Clomifene] (100 nM) | 102 | 96.8 | 104 | 106 | 112 | 91.3 | 75.9 | 104 | – | 105 | 98.5 | 96.2 | 102 | 112 | 59.1 | 100 | 97.7 | 106 | 104 | 105 | 103 | 106 | 102 | 94.1 | 113 | 95.2 | 104 | 98.5 | 103 | 87.8 | 109 | 103 | 102 | 101 | 103 | 99 | 101
CCc1cnn2c(NCc3ccc[n+]([O-])c3)cc(N3CCCC[C@H]3CCO)nc12 [Dinaciclib] (10 nM) | 93.8 | 92 | 104 | 36.4 | 87.1 | 82.9 | -11 | 107 | 54 | 95 | 92 | 93.2 | 96.6 | 93.7 | 107 | 103 | 72.3 | 67.9 | 85.2 | 67.7 | 94.8 | 28.2 | 65.7 | 90.3 | 79.9 | 105 | 37.4 | 53.5 | 68.7 | 75.8 | 101 | 88.1 | 68.5 | 91.2 | 89 | 71.2 | 24.4
CC(C)C(=O)Nc1ccc([N+](=O)[O-])c(C(F)(F)F)c1 [Flutamide] (100 nM) | 95.8 | 99.8 | 104 | 97.2 | 111 | 124 | 87.2 | 50.2 | 82 | 94.1 | 96.9 | 92.5 | 104 | 68.4 | 57.6 | 99.3 | 105 | 89.6 | 98 | 101 | 109 | 102 | 113 | 94 | 98 | 96.8 | 95.9 | 102 | 101 | 111 | 100 | 98.5 | 103 | 94.9 | 104 | 98.5 | 95
NC(=O)c1cccc2cn(-c3ccc([C@@H]4CCCNC4)cc3)nc12 [MK-4827] (100 nM) | 82.5 | 88.2 | 91.6 | 107 | 89.4 | 136 | 116 | 84.8 | – | – | 115 | 104 | 102 | 110 | 111 | 101 | 78 | 102 | 107 | 109 | 99.4 | 106 | 90.9 | 94.7 | 95.1 | 110 | 104 | 95.8 | 91.6 | 90 | 112 | 105 | 107 | 102 | 99.8 | 101 | 101
CC[C@@H]1C(=O)N(C)c2cnc(Nc3ccc(C(=O)N[C@H]4CC[C@H](N5CCN(CC6CC6)CC5)CC4)cc3OC)nc2N1C(C)C [Volasertib] (10 nM) | 1.2 | 71.2 | 92.4 | 71.8 | 65.5 | 34.3 | 77 | – | 19.6 | 100 | 91.3 | 86 | 91.6 | – | 53.5 | 95.3 | 87 | 69.5 | 54.6 | 82.6 | 65.4 | 79.9 | 84.2 | 68.3 | 96.3 | 87.9 | 54.8 | 59.5 | 89.8 | 106 | 84.4 | 88.5 | 82 | 83 | 100 | 86.3 | 70.4
